From PubChem BioAssay (NCI) come the findings set out here.

Among the test systems are 786-0 renal; HCT-15 colon; K-562 leukemia; OVCAR-5 ovarian; SK-MEL-5 melanoma; SNB-19 CNS; SR leukemia; SW-620 colon; UACC-62 melanoma; UO-31 renal.
Holding throughout (assay): NCI anticancer screen, dose series, 48 h

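How tested: cells in 96-well plates exposed to compound for 48 hours at five concentrations. Here, GI50 denotes the concentration required for 50% inhibition of growth. TGI marks complete inhibition of growth.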 Some results are limits rather than exact numbers.

In the case of `C=C(C)[C@@H]1CC[C@]2(CN)CC[C@]3(C)[C@H](CC[C@@H]4[C@@]5(C)CCC(N)[C@@](C)(CO)[C@@H]5CC[C@]43C)[C@@H]12` (some centres undefined), the GI50 is 1.64 µM in the assay with 786-0 renal; 1.65 µM in the assay with HCT-15 colon; 0.325 µM with K-562 leukemia; 1.73 µM in the assay on OVCAR-5 ovarian; 1.72 µM in the assay with SK-MEL-5 melanoma; 1.87 µM with SNB-19 CNS. Moreover, the GI50 in the assay with SR leukemia was 1.53 µM; in the assay with SW-620 colon, 1.8 µM; in the assay with UACC-62 melanoma, 1.85 µM; in the assay with UO-31 renal it was 1.6 µM. The TGI came to 3.11 µM in the assay with 786-0 renal; 3.24 µM in the assay with HCT-15 colon; 1.06 µM in the assay with K-562 leukemia; 3.15 µM in the assay with OVCAR-5 ovarian; 3.16 µM with SK-MEL-5 melanoma; 3.34 µM in the assay with SNB-19 CNS. The TGI amounted to 3.63 µM in the assay with SR leukemia, 3.62 µM in the assay on SW-620 colon, 3.33 µM in the assay with UACC-62 melanoma and 2.96 µM with UO-31 renal.
In the case of `C[C@@H]1OC(=O)NN=C1c1ccc(-c2ccc(F)cc2)c(C(F)(F)F)c1`, the GI50 was 13.7 µM in the assay on 786-0 renal; 4.6 µM in the assay on HCT-15 colon; 3.2 µM with K-562 leukemia; 5.02 µM with OVCAR-5 ovarian; 2.28 µM with SK-MEL-5 melanoma; 11 µM in the assay with SNB-19 CNS. Besides, the values for the GI50 with SR leukemia, with SW-620 colon and in the assay on UO-31 renal were 2.58 µM, 10.2 µM and 7.79 µM, respectively. Besides, the TGI was 30.3 µM in the assay with 786-0 renal; 17.9 µM in the assay on HCT-15 colon; above 100 µM in the assay with K-562 leukemia; 21.6 µM in the assay on OVCAR-5 ovarian; 9.01 µM in the assay on SK-MEL-5 melanoma; 23.3 µM in the assay on SNB-19 CNS. Besides, the TGI in the assay with SR leukemia amounted to 13 µM; in the assay with SW-620 colon, 25.3 µM; in the assay with UO-31 renal, 20.9 µM.
With `CCOC(=O)C(=O)C(/C(=N/N(C)C)C(=O)Nc1ccc(C)cc1C)c1nc2ccccc2[nH]c1=O` (centres undefined), the TGI in the assay on 786-0 renal, in the assay with HCT-15 colon, with K-562 leukemia, with OVCAR-5 ovarian, in the assay with SK-MEL-5 melanoma and with SNB-19 CNS was above 100 µM throughout. For the same compound, the TGI with SR leukemia, in the assay with SW-620 colon, in the assay with UACC-62 melanoma and in the assay on UO-31 renal was above 100 µM in each case.
In the case of `O=C(Nc1ccc(-n2ccc3c(NC(=O)c4ccccc4)nccc32)cc1)c1ccc(N2CCOCC2)c(C(F)(F)F)c1`, the GI50 in the assay with 786-0 renal is 0.364 µM; with K-562 leukemia, 0.0429 µM; in the assay on OVCAR-5 ovarian, 4.83 µM; with SK-MEL-5 melanoma, 0.0928 µM; in the assay on SNB-19 CNS, 0.481 µM; in the assay with SR leukemia it was below 0.0189 µM. In addition, the GI50 in the assay on SW-620 colon was 0.0697 µM; in the assay on UACC-62 melanoma, 0.331 µM; with UO-31 renal it was 0.557 µM. Besides, the TGI in the assay on HCT-15 colon is above 43.4 µM; with K-562 leukemia, above 100 µM; in the assay on OVCAR-5 ovarian it was above 76.1 µM; in the assay on SK-MEL-5 melanoma it was 10.8 µM; in the assay on SNB-19 CNS, above 81 µM; in the assay with SR leukemia, above 100 µM. The figures for the TGI in the assay on SW-620 colon, in the assay with UACC-62 melanoma and in the assay on UO-31 renal were above 100 µM, 21.7 µM and 19.5 µM, respectively.
Consider `C[C@@]1(O)CCC[C@H]1n1c(=O)c(C(F)F)cc2cnc(NC3CCN(S(C)(=O)=O)CC3)nc21`, for which the GI50 is 1.9 µM with 786-0 renal; 1.74 µM in the assay with HCT-15 colon; 1.96 µM in the assay with K-562 leukemia; 1.21 µM with OVCAR-5 ovarian; 1.15 µM in the assay with SK-MEL-5 melanoma; 1.34 µM with SNB-19 CNS. Moreover, the GI50 is 1.96 µM in the assay with SR leukemia, 0.0891 µM in the assay with SW-620 colon, 1.04 µM in the assay on UACC-62 melanoma and 1.2 µM with UO-31 renal. Further, the TGI with 786-0 renal is above 100 µM; with HCT-15 colon, 56.6 µM; with K-562 leukemia, above 100 µM; with OVCAR-5 ovarian it was above 100 µM; in the assay on SK-MEL-5 melanoma, 7.91 µM; in the assay with SNB-19 CNS, 16.8 µM. For the same compound, the TGI in the assay on SR leukemia is above 100 µM; with SW-620 colon, 6.46 µM; in the assay with UACC-62 melanoma, 3.31 µM; with UO-31 renal it was 3.97 µM.
As to `CC(C)=CCC/C(C)=C/CC/C(C)=C/C1CCC(=O)C1(C)C` (centres undefined), the TGI in the assay on 786-0 renal turned out to be 32.2 µM; with HCT-15 colon, 28.9 µM; with K-562 leukemia, 38 µM; in the assay with OVCAR-5 ovarian it was 39.7 µM; in the assay with SK-MEL-5 melanoma, 29.3 µM; with SNB-19 CNS, 65.2 µM. The figures for the TGI with SR leukemia, with UACC-62 melanoma and in the assay with UO-31 renal were 40.8 µM, 50.6 µM and 31.7 µM, respectively.
As for `[N-]=[N+]=NC1C2CC3CC(C2)CC1C3` (centres undefined), the TGI in the assay on 786-0 renal, with K-562 leukemia, in the assay with OVCAR-5 ovarian, in the assay with SK-MEL-5 melanoma, with SNB-19 CNS and in the assay with SR leukemia was above 100 µM throughout. Besides, the TGI in the assay on SW-620 colon, with UACC-62 melanoma and in the assay with UO-31 renal was above 100 µM in each case.
In the case of `CC(=O)Oc1cc(Cl)c(OC(C)=O)c2c(OC(C)=O)c(C)c(O[Si](C)(C)C(C)(C)C)cc12`, the TGI came to 28.1 µM in the assay on 786-0 renal; 20.3 µM in the assay on HCT-15 colon; 18.2 µM in the assay on K-562 leukemia; 14.6 µM in the assay on SK-MEL-5 melanoma; 25.7 µM with SNB-19 CNS; 19.1 µM in the assay with SR leukemia. Further, the TGI in the assay with SW-620 colon amounted to 8.85 µM; in the assay on UO-31 renal, 26.3 µM.
Turning to `Cc1ccc(-n2c3c(c4c(CN)c(O)ccc42)CCc2ccccc2C3=O)cc1`, the GI50 in the assay with 786-0 renal is 14.6 µM; in the assay on HCT-15 colon, 15.9 µM; in the assay with OVCAR-5 ovarian it was 15.8 µM; in the assay on SK-MEL-5 melanoma, 1.61 µM; with SNB-19 CNS, 19.9 µM; with SR leukemia, 2.33 µM. Moreover, the values for the GI50 in the assay with SW-620 colon, in the assay on UACC-62 melanoma and in the assay on UO-31 renal were 2.48 µM, 14 µM and 8.2 µM, respectively. Further, the TGI in the assay with 786-0 renal stood at 28.8 µM; in the assay with HCT-15 colon, 30.9 µM; in the assay on OVCAR-5 ovarian, 30.4 µM; with SK-MEL-5 melanoma, 3.01 µM; in the assay on SNB-19 CNS, 38.4 µM; in the assay with SR leukemia, 5.38 µM. Also, the TGI in the assay with SW-620 colon came to 8.19 µM; with UACC-62 melanoma it was 27 µM; in the assay with UO-31 renal, 22.1 µM.
For the compound `CC(C)(C)C1CCC(=O)C(C(O)CC2CC(=O)N(c3ccccc3)C(=O)C2)C1` (centres undefined), the TGI in the assay with 786-0 renal, with HCT-15 colon, in the assay on K-562 leukemia, in the assay on OVCAR-5 ovarian, with SNB-19 CNS and in the assay with SR leukemia was above 100 µM in each case. The TGI in the assay with SW-620 colon, in the assay on UACC-62 melanoma and in the assay on UO-31 renal was above 100 µM in each case.
